Source: patent publication US10626144B2, “Peptide derivatives and uses thereof” (Nosopharm, priority 2014, dated 2020)
Square brackets hold non-standard residues; d marks the D form. Peptide text beside a SMILES is read from it. * marks the point of attachment. Phe(3-CONH2) = NC(=O)c1cccc(C[C@H](N)C(=O)O)c1; Pro(trans-4-F) = O=C(O)[C@@H]1C[C@@H](F)CN1; Abu(4,4,4-F3) = N[C@@H](CC(F)(F)F)C(=O)O; Phe(4-CN) = N#Cc1ccc(C[C@H](N)C(=O)O)cc1; Phe(3-F) = N[C@@H](Cc1cccc(F)c1)C(=O)O; Phe(3-Me) = Cc1cccc(C[C@H](N)C(=O)O)c1; Dab(3S-OH) = NC[C@H](O)[C@H](N)C(=O)O; ΔZArg = N=C(N)NCC/C=C(\N)C(=O)O; dOrn = NCCC[C@@H](N)C(=O)O; Pip = O=C(O)[C@@H]1CCCCN1; NH(CH2)5NH2 = NCCCCCN*; NH(CH2)4NH2 = NCCCCN*

Assays:
Experiment in all cases: MIC, broth microdilution (CLSI), reference strain
Settings in all cases: CAMHB
[1] = system: Acinetobacter baumannii ATCC 19606
[2] = system: Pseudomonas aeruginosa ATCC 27853
[3] = system: Escherichia coli ATCC 25922
[4] = system: Staphylococcus aureus ATCC 13709

Row | Ab: MIC Acinetobacter baumannii ATCC 19606 [1] | Pa: MIC Pseudomonas aeruginosa ATCC 27853 [2] | Ec: MIC Escherichia coli ATCC 25922 [3] | Sa: MIC Staphylococcus aureus ATCC 13709 [4] | Structure (SMILES)
1 | − (>32 μg/mL) | − (>32 μg/mL) | − (>32 μg/mL) | − (>32 μg/mL) | N=C(N)NCC/C=C(\NC(=O)[C@H](CCCCN)NC(=O)[C@H](Cc1cccc(C(N)=O)c1)NC(=O)[C@@H]1CCCN1C(=O)[C@@H](CCCN)NC(=O)CNC(=O)[C@@H](NC(=O)[C@@H](NC(=O)[C@@H](N)CCCCN)[C@@H](O)CN)[C@@H](O)CN)C(=O)O [22.35] (H-K[Dab(3S-OH)][Dab(3S-OH)]G[dOrn]P[Phe(3-CONH2)]K[ΔZArg]-OH)
2 | − (>32 μg/mL) | − (>32 μg/mL) | ++ (≤8 μg/mL) | ++ (≤8 μg/mL) | N=C(N)NCC/C=C(\NC(=O)[C@H](CCCCN)NC(=O)[C@H](Cc1cccc(F)c1)NC(=O)[C@@H]1CCCN1C(=O)[C@@H](CCCN)NC(=O)CNC(=O)[C@@H](NC(=O)[C@@H](NC(=O)[C@@H](N)CCCCN)[C@@H](O)CN)[C@@H](O)CN)C(=O)O [22.36] (H-K[Dab(3S-OH)][Dab(3S-OH)]G[dOrn]P[Phe(3-F)]K[ΔZArg]-OH)
3 | − (>32 μg/mL) | − (>32 μg/mL) | + (≤32 μg/mL) | ++ (≤8 μg/mL) | Cc1cccc(C[C@H](NC(=O)[C@@H]2CCCN2C(=O)[C@@H](CCCN)NC(=O)CNC(=O)[C@@H](NC(=O)[C@@H](NC(=O)[C@@H](N)CCCCN)[C@@H](O)CN)[C@@H](O)CN)C(=O)N[C@@H](CCCCN)C(=O)N/C(=C\CCNC(=N)N)C(=O)O)c1 [22.37] (H-K[Dab(3S-OH)][Dab(3S-OH)]G[dOrn]P[Phe(3-Me)]K[ΔZArg]-OH)
4 | − (>32 μg/mL) | − (>32 μg/mL) | ++ (≤8 μg/mL) | ++ (≤8 μg/mL) | N#Cc1ccc(C[C@H](NC(=O)[C@@H]2CCCN2C(=O)[C@@H](CCCN)NC(=O)CNC(=O)[C@@H](NC(=O)[C@@H](NC(=O)[C@@H](N)CCCCN)[C@@H](O)CN)[C@@H](O)CN)C(=O)N[C@@H](CCCCN)C(=O)N/C(=C\CCNC(=N)N)C(=O)O)cc1 [22.38] (H-K[Dab(3S-OH)][Dab(3S-OH)]G[dOrn]P[Phe(4-CN)]K[ΔZArg]-OH)
5 | − (>32 μg/mL) | − (>32 μg/mL) | + (≤32 μg/mL) | ++ (≤8 μg/mL) | COc1ccc(C[C@H](NC(=O)[C@@H]2CCCN2C(=O)[C@@H](CCCN)NC(=O)CNC(=O)[C@@H](NC(=O)[C@@H](NC(=O)[C@@H](N)CCCCN)[C@@H](O)CN)[C@@H](O)CN)C(=O)N[C@@H](CCCCN)C(=O)N/C(=C\CCNC(=N)N)C(=O)O)cc1 [22.39] (H-K[Dab(3S-OH)][Dab(3S-OH)]G[dOrn]PY(Me)K[ΔZArg]-OH)
6 | − (>32 μg/mL) | − (>32 μg/mL) | + (≤32 μg/mL) | ++ (≤8 μg/mL) | N=C(N)NCC/C=C(\NC(=O)[C@H](CCCCN)NC(=O)[C@H](CC(F)(F)F)NC(=O)[C@@H]1CCCN1C(=O)[C@@H](CCCN)NC(=O)CNC(=O)[C@@H](NC(=O)[C@@H](NC(=O)[C@@H](N)CCCCN)[C@@H](O)CN)[C@@H](O)CN)C(=O)O [22.40] (H-K[Dab(3S-OH)][Dab(3S-OH)]G[dOrn]P[Abu(4,4,4-F3)]K[ΔZArg]-OH)
7 | − (>32 μg/mL) | − (>32 μg/mL) | ++ (≤8 μg/mL) | ++ (≤8 μg/mL) | N=C(N)NCC/C=C(\NC(=O)[C@H](CCCCN)NC(=O)[C@H](Cc1c[nH]c2ccccc12)NC(=O)[C@@H]1CCCN1C(=O)[C@@H](CCCN)NC(=O)CNC(=O)[C@@H](NC(=O)[C@@H](NC(=O)[C@@H](N)CCCCN)[C@@H](O)CN)[C@@H](O)CN)C(=O)O [22.41] (H-K[Dab(3S-OH)][Dab(3S-OH)]G[dOrn]PWK[ΔZArg]-OH)
8 | − (>32 μg/mL) | − (>32 μg/mL) | ++ (≤8 μg/mL) | ++ (≤8 μg/mL) | N=C(N)NCC/C=C(\NC(=O)[C@H](CCCCN)NC(=O)[C@H](Cc1cnc[nH]1)NC(=O)[C@@H]1CCCN1C(=O)[C@@H](CCCN)NC(=O)CNC(=O)CNC(=O)[C@@H](NC(=O)[C@@H](N)CCCCN)[C@@H](O)CN)C(=O)N[C@@H](CCCCN)C(=O)NCCCCN [23.1] (H-K[Dab(3S-OH)]GG[dOrn]PHK[ΔZArg]K-{NH(CH2)4NH2})
9 | − (>32 μg/mL) | + (≤32 μg/mL) | ++ (≤8 μg/mL) | ++ (≤8 μg/mL) | C[C@H](NC(=O)[C@@H](NC(=O)[C@@H](N)CCCCN)[C@@H](O)CN)C(=O)NCC(=O)N[C@H](CCCN)C(=O)N1CCC[C@H]1C(=O)N[C@@H](Cc1cnc[nH]1)C(=O)N[C@@H](CCCCN)C(=O)N/C(=C\CCNC(=N)N)C(=O)N[C@@H](CCCCN)C(N)=O [24.2] (H-K[Dab(3S-OH)]AG[dOrn]PHK[ΔZArg]K-NH2)
10 | − (>32 μg/mL) | + (≤32 μg/mL) | ++ (≤8 μg/mL) | ++ (≤8 μg/mL) | C[C@H](NC(=O)[C@@H](NC(=O)[C@@H](N)CCCCN)[C@@H](O)CN)C(=O)NCC(=O)N[C@H](CCCN)C(=O)N1CCCC[C@H]1C(=O)N[C@@H](Cc1cnc[nH]1)C(=O)N[C@@H](CCCCN)C(=O)N/C(=C\CCNC(=N)N)C(=O)N[C@@H](CCCCN)C(=O)NCCCCN [24.3] (H-K[Dab(3S-OH)]AG[dOrn][Pip]HK[ΔZArg]K-{NH(CH2)4NH2})
11 | + (≤32 μg/mL) | + (≤32 μg/mL) | ++ (≤8 μg/mL) | ++ (≤8 μg/mL) | C[C@H](NC(=O)[C@@H](NC(=O)[C@@H](N)CCCCN)[C@@H](O)CN)C(=O)NCC(=O)N[C@H](CCCN)C(=O)N1C[C@H](F)C[C@H]1C(=O)N[C@@H](Cc1cnc[nH]1)C(=O)N[C@@H](CCCCN)C(=O)N/C(=C\CCNC(=N)N)C(=O)N[C@@H](CCCCN)C(=O)NCCCCN [24.4] (H-K[Dab(3S-OH)]AG[dOrn][Pro(trans-4-F)]HK[ΔZArg]K-{NH(CH2)4NH2})
12 | + (≤32 μg/mL) | ++ (≤8 μg/mL) | ++ (≤8 μg/mL) | ++ (≤8 μg/mL) | C[C@H](NC(=O)[C@@H](NC(=O)[C@@H](N)CCCCN)[C@@H](O)CN)C(=O)NCC(=O)N[C@H](CCCN)C(=O)N1CCC[C@H]1C(=O)N[C@@H](Cc1cnc[nH]1)C(=O)N[C@@H](CCCCN)C(=O)N/C(=C\CCNC(=N)N)C(=O)N[C@@H](CCCCN)C(=O)NCCCCCN [24.6] (H-K[Dab(3S-OH)]AG[dOrn]PHK[ΔZArg]K-{NH(CH2)5NH2})
13 | − (>32 μg/mL) | − (>32 μg/mL) | ++ (≤8 μg/mL) | ++ (≤8 μg/mL) | C[C@H](NC(=O)/C(=C/CCNC(=N)N)NC(=O)[C@H](CCCCN)NC(=O)[C@H](Cc1cnc[nH]1)NC(=O)[C@@H]1CCCN1C(=O)[C@@H](CCCN)NC(=O)CNC(=O)[C@H](C)NC(=O)[C@@H](NC(=O)[C@@H](N)CCCCN)[C@@H](O)CN)C(N)=O [24.7] (H-K[Dab(3S-OH)]AG[dOrn]PHK[ΔZArg]A-NH2)
